Consider seven compounds from US10626106B2, “Substituted pyrrolidine amides I” (Gruenenthal GmbH, priority 2017, dated 2020).

The target in one assay is T1, Human Glucocorticoid Receptor (hGR) (Homo sapiens, UniProt P04150).
T1 construct: the resultant supernatant (=cytosol of IM9 cells) was centrifuged at 103,000 g for 60 minutes; host or cells: IM9 human lymphoblast cell line (cytosol fraction)
T1 sequence (P04150 1-777): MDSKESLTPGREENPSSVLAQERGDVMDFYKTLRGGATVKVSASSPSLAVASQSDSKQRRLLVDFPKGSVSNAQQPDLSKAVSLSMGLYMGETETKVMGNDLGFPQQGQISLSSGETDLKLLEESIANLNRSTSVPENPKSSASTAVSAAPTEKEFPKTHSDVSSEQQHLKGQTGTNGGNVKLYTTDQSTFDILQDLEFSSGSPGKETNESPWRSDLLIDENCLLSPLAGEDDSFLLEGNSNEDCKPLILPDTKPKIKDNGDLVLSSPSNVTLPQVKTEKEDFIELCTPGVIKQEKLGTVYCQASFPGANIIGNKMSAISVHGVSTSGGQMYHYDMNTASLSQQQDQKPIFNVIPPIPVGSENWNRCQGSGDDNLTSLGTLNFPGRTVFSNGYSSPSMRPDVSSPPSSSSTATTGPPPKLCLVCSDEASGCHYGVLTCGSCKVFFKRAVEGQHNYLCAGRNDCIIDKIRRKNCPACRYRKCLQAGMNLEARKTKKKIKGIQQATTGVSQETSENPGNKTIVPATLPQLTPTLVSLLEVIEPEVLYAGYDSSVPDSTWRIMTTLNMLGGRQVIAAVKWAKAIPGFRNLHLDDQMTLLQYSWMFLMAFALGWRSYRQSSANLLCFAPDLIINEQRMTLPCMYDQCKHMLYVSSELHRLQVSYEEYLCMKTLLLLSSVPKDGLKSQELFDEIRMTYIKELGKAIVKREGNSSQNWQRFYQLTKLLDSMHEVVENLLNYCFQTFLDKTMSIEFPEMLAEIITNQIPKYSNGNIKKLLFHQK
Description: Human Glucocorticoid Receptor (hGR) Ligand-Binding Assay (competitive 3H-dexamethasone binding, IM9 cytosol). Conditions: compound at 1 μM; competition with 3H-dexamethasone; cytosol of IM9 cells; read-out: % inhibition hGR at 1 μM. An excerpt:
Human Glucocorticoid Receptor (hGR) Ligand-Binding Assay
Potential selective glucocorticoid receptor modulators of this intervention can be tested for their binding affinity at the glucocorticoid receptor using the binding assay described below.
Preferably, the glucocortitcoid receptor extracted from cytosol of IM9 cells is used for competitive radioligand binding assays to calculate the IC50 values and binding affinity (Ki value) of the compounds according to the present invention. Preferably, a fixed concentration of the radioligand 3H-dexamethasone and a range of concentrations of compounds according to the present invention (as unlabeled competitors of dexamethasone) are mixed with the extracted glucocorticoid receptor in order to measure the potency/affinity with which they compete for the binding of the radioligand. Preferably, by using competition curves the IC50 which is the concentration of competing ligand that displaces 50% of the specific binding of the radioligand is determined. Finally this IC50 value is converted to a Ki value.
The human lymphoblast cell line IM9 (ATCC, Bethesda, Md.) were cultivated in RPMI 1640 media containing 10% fetal bovine serum, penicillin (100 U/ml), streptomycin (100 μg/ml), and 2 mM L-glutamine at […] and 7% CO2 in a humidified incubator. Cells were centrifuged for 10 minutes at 1500 g and were washed in PBS and repelleted. Cell were then resuspended in homogenization buffer consisting of: 10 mM TES, 10 mM sodium molybdate, 1 mM EDTA, pH 7.4, 20 mM 2-mercaptoethanol, and 10% glycerol. Disruption of the cells was performed by nitrogen cavitation using 2×15 minutes at 600 to 750 psi nitrogen in a N2 cavitator at 0° C. The cell preparation was then centrifuged at 27,000 g for 15 minutes, and the resultant supernatant (=cytosol of IM9 cells) was centrifuged at 103,000 g for 60 minutes at 4° C. The amount of protein in the supernatant fraction was determined using a BCA assay kit and aliquots were snap frozen in a dry ice-acetone bath and stored at −70° C. Competitive binding assays were done in duplicate in homogenization buffer with a total volume of 200 μl. To this end, 1 mg of IM9 cytosol, 0.05 μCi (1.5 nM) of 3H-dexamethasone […] and compounds according to the present invention (=unlabeled competitors of dexamethasone; range of concentrations) were mixed. The reaction was stopped after incubation at 0° C. for 16 to 18 hours by the addition of 100 μl of a charcoal-dextran mixture (2% activated charcoal, 0.5% dextran in 10 mM Tris, 1 mM EDTA, pH 7.4). Another incubation step at 0° C. for 10 minutes followed before the samples were centrifuged for 5 minutes at 8200 g. 100 μl of the supernatant) was finally assayed for radioactivity by liquid scintillationspectrometry, and the IC50 values were determined graphically and were converted to Ki values.
Regarding `Cn1cc(-n2ncc3cc(N4C(=O)C[C@H](NC(=O)C(C)(F)F)[C@H]4c4cccc(Cl)c4)ccc32)ccc1=O` [Example 1, N-((2R,3S)-2-(3-chlorophenyl)-1-(1-(1-methyl-6-oxo-1,6-dihydropyridin-3-yl)-1H-indazol-5-yl)-5-oxopyrrolidin-3-yl)-2,2-difluoropropanamide], the inhibition at 1 µM was more than 85%.
Still for that read-out and setting: with `Cn1cc(-n2ncc3cc(N4C(=O)C[C@H](NC(=O)c5cocn5)[C@H]4c4ccccc4)ccc32)ccc1=O` [Example 50, N-[(2R,3S)-1-[1-(1-methyl-6-oxo-3-pyridyl)indazol-5-yl]-5-oxo-2-phenyl-pyrrolidin-3-yl]oxazole-4-carboxamide] the figure was 60 to 85%; with `Cn1cc(-n2ncc3cc(N4C(=O)C[C@H](NC(=O)C5CC5)[C@H]4c4ccccc4F)ccc32)ccc1=O` [Example 39, N-((2R,3S)-2-(2-fluorophenyl)-1-(1-(1-methyl-6-oxo-1,6-dihydropyridin-3-yl)-1H-indazol-5-yl)-5-oxopyrrolidin-3-yl)cyclopropanecarboxamide], 60 to 85%.
On the same count and under the same terms, the same measure for `Cc1nc(C(=O)N[C@H]2CC(=O)N(c3ccc4c(cnn4-c4ccc(=O)n(C)c4)c3)[C@@H]2c2ccccc2)no1` [Example 51, 5-methyl-N-[(2R,3S)-1-[1-(1-methyl-6-oxo-3-pyridyl)indazol-5-yl]-5-oxo-2-phenyl-pyrrolidin-3-yl]-1,2,4-oxadiazole-3-carboxamide]: more than 85%.

The assay is the same for the next values; noted with them: read-out: % inhibition hGR at 1 μM.
On to `CC(F)(F)C(=O)N[C@H]1CC(=O)N(c2ccc3c(cnn3-c3ncc(F)cn3)c2)C1c1ccccc1` (stereo in doubt) [Example 47, N-(trans-1-(1-(5-fluoropyrimidin-2-yl)-1H-indazol-5-yl)-5-oxo-2-phenylpyrrolidin-3-yl)-2,2-difluoropropanamide], for which the inhibition at 1 µM fell in the range of 60 to 85%.
Still for that read-out and setting: the same measure for `COc1cc(-n2ncc3cc(N4C(=O)C[C@H](NC(=O)C(C)(F)F)C4c4ccccc4)ccc32)ccn1` (stereo in doubt) [Example 27, trans-2,2-difluoro-N-(1-(1-(2-methoxypyridin-4-yl)-1H-indazol-5-yl)-5-oxo-2-phenylpyrrolidin-3-yl)propanamide]: 60 to 85%; for `Cn1cc(-n2ncc3cc(N4C(=O)C[C@H](NC(=O)C(C)(F)F)[C@H]4c4ccc(F)cc4)ccc32)ccc1=O` [Example 17, 2,2-difluoro-N-((2R,3S)-2-(4-fluorophenyl)-1-(1-(1-methyl-6-oxo-1,6-dihydropyridin-3-yl)-1H-indazol-5-yl)-5-oxopyrrolidin-3-yl)propanamide]: more than 85%.

The inhibition is the relative decrease from the control value, in per cent.
